In US4987151A, “Triterpene derivatives cholesterol acyltransferase inhibitors and methods of using same” (The Trustees of Columbia University in the City of New York, priority 1989, dated 1991):

Key:
[1] = test system: J774 Macrophages; conditions: tissue culture macrophages (J774); cited from earlier work
[2] = test system: ACAT enzyme; experiment: ACAT inhibitory activity, free hydroxyl compound versus ester admixture; assay type: biochemical
Description: The term "effective amount" as used herein is an amount sufficient to inhibit the ACAT enzyme from esterifying cholesterol and fatty acids to cholesteryl esters. The actual amount used varies depending on which compound or composition or admixture is used. For example, the free hydroxyl compound seems to have less activity than an admixture of the stearate and palmitate esters. The actual dosages may vary from about 0.1 mg/kg/day to about 50 mg/kg/day, and may be adjusted by a person of ordinary skill in the art to maximize effectiveness while avoiding side effects and toxicities.

[3] = test system: rats; conditions: cited from earlier work

For CCCCCCCCCC[Si](C)(C)CCC(=O)NC(Cc1ccc(C)cc1)c1ccccc1 (stereo not drawn) [Sandoz Compound 58-035], the “effect on foam cell formation” value [1] is listed as “help prevent foam cell formation”.

With C[C@@H]1[C@H](O)CC[C@]2(C)[C@H]3CC=C4[C@@H]5C[C@](C)(C(=O)O)C[C@H](O)[C@]5(C)CC[C@@]4(C)[C@]3(C)CC[C@@H]12 [free hydroxyl compound] the “activity relative to admixture of the stearate and palmitate esters” value [2] was “less activity”.

In the case of CCCCCCCN(Cc1ccc(CC(C)(C)C)cc1)C(=O)Nc1ccc(F)cc1F [CL 277,082], the “effect on cholesterol concentrations in plasma, liver, and aorta” value [3] is given as “decreasing cholesterol concentrations in plasma, liver, and aorta”.
